Data published in US12415789B2, “Macrocycles comprising a 4-amido-2,4-pentadienoate moiety for the treatment of hypoxic cancers” (Aarhus Universitet, priority 2019, dated 2025).
Where two headings read alike, the source gives them in different places.

Assays:
Format in all cases: cell-based, human
HCT116 cells = experiment: Viability assay (CellTiter Blue), HCT116 cells, hypoxia vs normoxia; conditions: for Index [3] Selectivity index (IC50 [2]/IC50 [1]): HCT116, normoxic IC50 / hypoxic IC50
Procedure: (§1) PANC-1 and HaCat cells (PANC-1: RRID:CVCL 0480, taken from a person, HaCat: RRID:CVCL 0038) were cultured in DMEM (Gibco, Cat #: 21969-035) supplemented with FBS (10%, Gibco, Cat #: A31698-02), Penicillin/Streptomycin (1%, Sigma-Aldrich, Cat #: P0781), and Ala-Gln (200 μM, Sigma-Aldrich, Cat #: G8541). BxPC3 cells (RRID:CVCL 0186, taken from a person) were cultured in RPMI 1640 (Gibco, Cat #: 61870-010) supplemented with FBS (10%) and Penicillin/Streptomycin (1%). U2OS (RRID:CVCL 0042) and HCT116 cells (RRID:CVCL 0291, ATCC CCL-247) were cultured in McCoy's 5A (Sigma cat. no. M9309) supplemented with FBS (10%) and Penicillin/Streptomycin (1%). Cells were grown under normoxic conditions in T75 flasks (Biolite, Thermo Scientific, Cat #: 130190) in a humidified atmosphere with 5% CO2 at 37° C. For hypoxic conditions cells were placed in a modular incubator chamber (MIC-101, Billups-Rothenberg) equipped with a 10-cm dish with milliQ water and flushed with CO2/N2 (5%/95%, BioNERT, AGA Cat #: 100466065) for 8 minutes at 20-25 L/minute. Cells were passaged approximately every third day by trypsination (Sigma-Aldrich, Cat #: T4049) followed by transfer of ⅕^th of the cells to a new flask. All cell cultures were handled aseptically in a laminar air flow bench and grown in sterile-filtered (Jetbiofil, Cat #: FPE204500) medium according to ATCC's recommendations. All human cell lines were correctly identified by short tandem repeat analysis and tested free of mycoplasma contamination by MycoAlert (Lonza, Cat #: LT07-218).
(§2) Cells were seeded in black 96-well plates (2000 cells/well, 75 μL/well, ThermoFisher Scientific, Cat #: 137103) in complete medium. Subsequently, the cells were allowed to adhere to the substratum overnight. The next day, compounds were serially diluted in DMSO as 200× solutions. The 200× solutions of compounds were initially diluted in complete medium to 4× solutions containing 2% DMSO. Finally, the compounds were given to cells by the addition of 25 μL/well in triplicates resulting in 1× solutions of compounds in 100 μL/well. The cells were then incubated under either normoxia or hypoxia. 90 minutes before the end of the experiment, all cells were given CellTiter Blue (20 μL/well, Promega, Cat #: G8080) and reincubated under normoxia for the remaining time of the experiment. The viability of the cells was assessed by measuring fluorescence in a plate reader (ex/em: 552±10/598±10, Tecan Spark 10M). Data were normalized to the two lowest concentrations of compound and fitted to a 4-parameter nonlinear regression in Prism 7.04 for Windows, GraphPad Software, La Jolla Calif. USA. IC50 values were extrapolated as the X value at Y=50%. Results can be found in Table 1 and the corresponding dose-response curves seen in FIGS. 12 to 17 and in FIGS. 9 to 10.

PANC-1 cells = experiment: Viability assay (CellTiter Blue), PANC-1 cells, hypoxia vs normoxia; conditions: for Index [3] Selectivity index (IC50 [2]/IC50 [1]): PANC1, normoxic IC50 / hypoxic IC50
Procedure: as §1, §2

BxPC3 cells = experiment: Viability assay (CellTiter Blue), BxPC3 cells, hypoxia vs normoxia; conditions: for Index [3] Selectivity index (IC50 [2]/IC50 [1]): BxPC3, normoxic IC50 / hypoxic IC50
Procedure: as §1, §2

U2OS cells = experiment: Viability assay (CellTiter Blue), U2OS cells, hypoxia vs normoxia; conditions: for Index [3] Selectivity index (IC50 [2]/IC50 [1]): normoxic IC50 / hypoxic IC50
Procedure: (§3) Cells were seeded in black 96-well plates (2000 cells/well, 75 μL/well, ThermoFisher Scientific, Cat #: 137103) in complete medium. Subsequently, the cells were allowed to adhere to the substratum overnight. The next day, compounds were serially diluted in DMSO as 200× solutions. The 200× solutions of compounds were initially diluted in complete medium to 4× solutions containing 2% DMSO. Finally, the compounds were given to cells by the addition of 25 μL/well in triplicates resulting in 1× solutions of compounds in 100 μL/well. The cells were then incubated under either normoxia or hypoxia. 90 minutes before the end of the experiment, all cells were given CellTiter Blue (20 μL/well, Promega, Cat #: G8080) and reincubated under normoxia for the remaining time of the experiment. The viability of the cells was assessed by measuring fluorescence in a plate reader (ex/em: 552±10/598±10, Tecan Spark 10M). Data were normalized to the two lowest concentrations of compound and fitted to a 4-parameter nonlinear regression in Prism 7.04 for Windows, GraphPad Software, La Jolla Calif. […] IC50 values were extrapolated as the X value at Y=50%.

HaCat cells = experiment: Viability assay (CellTiter Blue), HaCat cells, hypoxia vs normoxia; conditions: for Index [3] Selectivity index (IC50 [2]/IC50 [1]): normoxic IC50 / hypoxic IC50
Procedure: as §3

[1] = HCT116, hypoxic conditions, read-out: IC50 (μM) [1]
[2] = HCT116, normoxic conditions, read-out: IC50 (μM) [2]
[3] = PANC1, hypoxic conditions, read-out: IC50 (μM) [1]
[4] = PANC1, normoxic conditions, read-out: IC50 (μM) [2]
[5] = BxPC3, hypoxic conditions, read-out: IC50 (μM) [1]
[6] = BxPC3, normoxic conditions, read-out: IC50 (μM) [2]
[7] = hypoxic conditions, read-out: IC50 (μM) [1]
[8] = normoxic conditions, read-out: IC50 (μM) [2]
[9] = Homo sapiens, HCT-116, HCT116, hypoxic conditions, read-out: IC50 (μM) [1]
[10] = Homo sapiens, HCT-116, HCT116, normoxic conditions, read-out: IC50 (μM) [2]
[11] = Homo sapiens, PANC-1, PANC1, hypoxic conditions, read-out: IC50 (μM) [1]
[12] = Homo sapiens, PANC-1, PANC1, normoxic conditions, read-out: IC50 (μM) [2]
[13] = Homo sapiens, BXPC-3, BxPC3, hypoxic conditions, read-out: IC50 (μM) [1]
[14] = Homo sapiens, BXPC-3, BxPC3, normoxic conditions, read-out: IC50 (μM) [2]
[15] = Homo sapiens, hypoxic conditions, read-out: IC50 (μM) [1]
[16] = Homo sapiens, normoxic conditions, read-out: IC50 (μM) [2]

| Compound | IC50 (HCT116 cells; [1]) [µM] | IC50 (HCT116 cells; [2]) [µM] | IC50 (PANC-1 cells; [3]) [µM] | IC50 (PANC-1 cells; [4]) [µM] | IC50 (BxPC3 cells; [5]) [µM] | IC50 (BxPC3 cells; [6]) [µM] | Index [3] Selectivity index (IC50 [2]/IC50 [1]) (HCT116 cells) | Index [3] Selectivity index (IC50 [2]/IC50 [1]) (PANC-1 cells) | Index [3] Selectivity index (IC50 [2]/IC50 [1]) (BxPC3 cells) | other results |
| --- | --- | --- | --- | --- | --- | --- | --- | --- | --- | --- |
| C=C1/C=C/C(=O)N(C)CC(=O)N[C@@H](CC(=O)N2CCOCC2)COc2cc(CCCCCCCCCCCC)ccc2C(=O)N1 [PH741, (S,E)-16-dodecyl-7-methyl-11-methylene-3-(2-morpholino-2-oxoethyl)-3,4,6,7,11,12-hexahydrobenzo[n][1]oxa[4,7,12]triazacyclopentadecine-5,8,13(2H)-trione] | 3.3 | 16.2 | 7.8 | 16.3 | – | – | 4.9 | 2.1 | – | – |
| C=C1/C=C/C(=O)N(C)CC(=O)N[C@@H](CC(=O)OC)COc2cc(CCCCCCCCCCCC)ccc2C(=O)N1 [PH832, Methyl (S,E)-2-(16-dodecyl-7-methyl-11-methylene-5,8,13-trioxo-2,3,4,5,6,7,8,11,12,13-decahydrobenzo[n][1]oxa[4,7,12]-triazacyclopentadecin-3-yl)acetate] | 5 | 5.6 | 4.3 | 23.3 | – | – | 1.1 | 5.4 | – | – |
| C#CCNC(=O)C[C@H]1COc2cc(CCCCCCCCCCCC)ccc2C(=O)NC(=C)/C=C/C(=O)N(C)CC(=O)N1 [PH845, (S,E)-2-(16-dodecyl-7-methyl-11-methylene-5,8,13-trioxo-2,3,4,5,6,7,8,11,12,13-decahydrobenzo[n][1]oxa[4,7,12]-triazacyclopentadecin-3-yl)-N-(prop-2-yn-1-yl)acetamide] | 4.2 | > 50 | 3.1 | > 50 | – | – | >12.4 | >16.4 | – | – |
| C=C1/C=C/C(=O)N(C)CC(=O)N2CC(F)(F)C[C@H]2COc2cc(CCCCCCCCCCCC)ccc2C(=O)N1 [PH905, (S,E)-16-dodecyl-2,2-difluoro-7-methyl-11-methylene-2,3,6,7,11,12,19,19a-octahydro-1H,5H-benzo[n]pyrrolo[2,1-c][1]oxa-[4,7,12]triazacyclopentadecine-5,8,13-trione] | 3.7 | 3.5 | 5.4 | 5.8 | 5.5 | 6.3 | 1.0 | 1.1 | 1.1 | – |
| C=C1/C=C/C(=O)N(C)CC(=O)N[C@@H](CC(=O)NC2CC2)COc2cc(CCCCCCCCCCCC)ccc2C(=O)N1 [PH906, (S,E)-N-cyclopropyl-2-(16-dodecyl-7-methyl-11-methylene-5,8,13-trioxo-2,3,4,5,6,7,8,11,12,13-decahydrobenzo[n][1]oxa[4,7,12]-triazacyclopentadecin-3-yl)acetamide] | 1.4 | > 28 | 2.3 | > 28 | – | – | >20.7 | >12.1 | – | – |
| C=C1/C=C/C(=O)N(C)CC(=O)N2CCC[C@H]2COc2cc(CCCCCCCCCCCC)ccc2C(=O)N1 [PH921, (S,E)-16-dodecyl-7-methyl-11-methylene-2,3,6,7,11,12,19,19a-octahydro-1H,5H-benzo[n]pyrrolo[2,1-c][1]oxa[4,7,12]triazacyclo-pentadecine-5,8,13-trione] | 2.6 | 8.4 | 2.6 | 13.7 | 6 | 12.3 | 3.3 | 5.3 | 2.1 | – |
| Cn1c(COP(=O)(NCCBr)NCCBr)cnc1[N+](=O)[O-] [TH302, Evofosfamide, reference compound] | – | – | – | – | – | – | 6.9 | 7.2 | 3.4 | IC50 (HCT116 cells; [9]): 6.2 µM; IC50 (HCT116 cells; [10]): 43 µM; IC50 (PANC-1 cells; [11]): 9.4 µM; IC50 (PANC-1 cells; [12]): 69 µM; IC50 (BxPC3 cells; [13]): 21 µM; IC50 (BxPC3 cells; [14]): 71 µM |
| Nc1n[n+]([O-])c2ccccc2[n+]1[O-] [Tirapazamine, reference compound] | – | – | – | – | – | – | 4.0 | 7.1 | 2.8 | IC50 (HCT116 cells; [9]): 14.4 µM; IC50 (HCT116 cells; [10]): 58 µM; IC50 (PANC-1 cells; [11]): 11 µM; IC50 (PANC-1 cells; [12]): 76 µM; IC50 (BxPC3 cells; [13]): 14 µM; IC50 (BxPC3 cells; [14]): 39 µM; IC50 (U2OS cells; [15]): 98 µM; IC50 (U2OS cells; [16]): 18 µM; Index [3] Selectivity index (IC50 [2]/IC50 [1]) (U2OS cells): 5.5; IC50 (HaCat cells; [15]): 20 µM; IC50 (HaCat cells; [16]): 106 µM; Index [3] Selectivity index (IC50 [2]/IC50 [1]) (HaCat cells): 5.2 |

Now from value to compound, other results behind:

| IC50 (HCT116 cells; [1]) [µM] | IC50 (HCT116 cells; [2]) [µM] | IC50 (PANC-1 cells; [3]) [µM] | IC50 (PANC-1 cells; [4]) [µM] | IC50 (BxPC3 cells; [5]) [µM] | IC50 (BxPC3 cells; [6]) [µM] | Compound | Index [3] Selectivity index (IC50 [2]/IC50 [1]) (HCT116 cells) | Index [3] Selectivity index (IC50 [2]/IC50 [1]) (PANC-1 cells) | Index [3] Selectivity index (IC50 [2]/IC50 [1]) (BxPC3 cells) | other results |
| --- | --- | --- | --- | --- | --- | --- | --- | --- | --- | --- |
| > 50 | > 50 | > 50 | > 50 | > 50 | > 50 | CCCCCCCCCCCCc1ccc2c(c1)OCCNC(=O)CN(C)C(=O)/C=C/C(CO)NC2=O (stereo not shown) [PH462, (E)-16-dodecyl-11-(hydroxymethyl)-7-methyl-3,4,6,7,11,12-hexahydro-benzo[n][1]oxa[4,7,12]triazacyclopentadecine-5,8,13(2H)-trione] | – | – | – | – |
| 0.98 | 4.2 | 1.8 | 4.1 | 3.4 | 4.9 | C=C1C=CC(=O)N(C)CC(=O)NCCOc2cc(CCCCCCCCCCCC)ccc2C(=O)N1 [PH466, (E)-16-dodecyl-7-methyl-11-methylene-3,4,6,7,11,12-hexahydro-benzo[n][1]oxa[4,7,12]triazacyclopentadecine-5,8,13(2H)-trione] | 4.3 | 2.3 | 1.4 | IC50 (U2OS cells; [7]): 2.1 µM; Index [3] Selectivity index (IC50 [2]/IC50 [1]) (U2OS cells): 1.8; IC50 (U2OS cells; [8]): 3.8 µM; IC50 (HaCat cells; [7]): 3.9 µM; Index [3] Selectivity index (IC50 [2]/IC50 [1]) (HaCat cells): 1.3; IC50 (HaCat cells; [8]): 4.9 µM |
| > 50 | > 50 | > 50 | > 50 | > 50 | > 50 | CCCCCCCCCCCCc1ccc2c(c1)OC[C@H](CC(=O)OC)NC(=O)CN(C)C(=O)/C=C/[C@H](CO)NC2=O [PH830, Methyl 2-((3S,11R,E)-16-dodecyl-11-(hydroxymethyl)-7-methyl-5,8,13-trioxo-2,3,4,5,6,7,8,11,12,13-decahydrobenzo[n][1]oxa[4,7,12]-triazacyclopentadecin-3-yl)acetate] | – | – | – | – |
| 14.7 | 17.4 | > 50 | > 50 | > 50 | > 50 | CCCCCCCCCCCCc1ccc2c(c1)OC[C@H](CCCCNC(=O)OC(C)(C)C)NC(=O)CN(C)C(=O)/C=C/[C@H](CO)NC2=O [PH908, tert-butyl (4-((3S,11R,E)-16-dodecyl-11-(hydroxymethyl)-7-methyl-5,8,13-trioxo-2,3,4,5,6,7,8,11,12,13-decahydrobenzo[n][1]oxa-[4,7,12]triazacyclopentadecin-3-yl)butyl)carbamate] | 1.2 | – | – | – |
